The text below walks through data of article PMC10663837 (iScience, 2023).

For one data set, the system named is PD-L1 and PD-L2. The note with it: Hsp90 N-terminal inhibitors; cited from earlier work.
For another data set, the system named is E0771 tumors. Briefly: EnnA combined with CX3CR1 antagonist JMS-17-2, E0771 tumors. In kind it is in vivo, mouse. The note with it: JMS-17-2 10 mg/kg i.p. every 48 h alternating with EnnA 10 mg/kg.
Data set [1] relates to lung breast cancer metastasis. Conditions: cited from earlier work.
The next data set concerns Hsp90β/HOP. Briefly: Co-immunoprecipitation of purified Hsp90β with HOP. It counts as binding, human. Conditions: 40 μM EnnA or 5 μM 17-AAG, 5 mM ATP, 30 min 30°C.
Another data set has as its system 4T1 tumors. Put plainly: Histology. In kind it is in vivo, mouse.
Data set [2] relates to cytokine/chemokine mRNA in E0771 cells. Briefly: RTqPCR of cytokines, chemokines and CX3CR1.
The next data set deals with E0771 transcriptome. Briefly: Bulk RNA-seq of E0771 cells. Conditions: ∼14%. In kind it is cell-based, murine.
Data set [3] concerns 4T1 tumor-infiltrating CD8+ T cells. Put plainly: Immunofluorescence of 4T1 tumor-infiltrating immune cells. In kind it is in vivo, mouse. Conditions: EnnA 10 mg/kg/48 h, 17-AAG 25 mg/kg/48 h.
For data set [4], the system named is MEFs, MCF10A, E0771, Hs578T cells. Briefly: Cytotoxicity to normal versus cancer cells. In kind it is cell-based, mouse and human. The note with it: 24, 48, 72 h; EnnA 1.25-20 µM, 17AAG 0.15-5 µM; absorbance 490 nm.
Another data set concerns Hsp90β/p23. Briefly: Co-immunoprecipitation of purified Hsp90β with p23. In kind it is binding, human. Conditions: 40 μM EnnA or 5 μM 17-AAG, 5 mM ATP, 30 min 30°C.
The test system of data set [5] is Hsp90 client proteins, Hsp70, Hsp40, Hsp27. Briefly: Western blot of Hsp90 client and heat shock proteins in cells. It counts as cell-based, human and murine. In general terms: A western blot detects proteins with antibodies after separation by electrophoresis.
Another data set deals with MDA-MB-231 cells. Put plainly: Flow cytometry of surface Hsp90, calreticulin, HMGB1, MDA-MB-231 cells. It counts as cell-based, human. The note with it: 7.5 μM EnnA, 0.5 µM 17-AAG, 24h. Background: Flow cytometry measures light scatter and fluorescence of single cells or particles in a stream.
In data set [6] the test system is progesterone receptor (PR) refolding by Hsp90 chaperone machine. Put plainly: Progesterone receptor. In kind it is biochemical, rabbit.
Data set [7] deals with patient-derived human melanoma cells. The note with it: cited from earlier work.
Data set [8] relates to Hsp90β. Briefly: Cellular thermal shift assay. It counts as cell-based, murine. The note with it: E0771 cells, 20 μM, 90 mn.
Data set [9] concerns cancer cells. Conditions: cited from earlier work.
The test system of data set [10] is Hsp90β. Conditions: cited from earlier work.
Data set [11] deals with cancer cells. Conditions: cited from earlier work. The source holds these as a separate data set.
In the next data set the target is Human Hsp90β, purified (human, UniProt P08238 1-724). Briefly: co-IP.
Human Hsp90β, purified, sequence (P08238 whole entry): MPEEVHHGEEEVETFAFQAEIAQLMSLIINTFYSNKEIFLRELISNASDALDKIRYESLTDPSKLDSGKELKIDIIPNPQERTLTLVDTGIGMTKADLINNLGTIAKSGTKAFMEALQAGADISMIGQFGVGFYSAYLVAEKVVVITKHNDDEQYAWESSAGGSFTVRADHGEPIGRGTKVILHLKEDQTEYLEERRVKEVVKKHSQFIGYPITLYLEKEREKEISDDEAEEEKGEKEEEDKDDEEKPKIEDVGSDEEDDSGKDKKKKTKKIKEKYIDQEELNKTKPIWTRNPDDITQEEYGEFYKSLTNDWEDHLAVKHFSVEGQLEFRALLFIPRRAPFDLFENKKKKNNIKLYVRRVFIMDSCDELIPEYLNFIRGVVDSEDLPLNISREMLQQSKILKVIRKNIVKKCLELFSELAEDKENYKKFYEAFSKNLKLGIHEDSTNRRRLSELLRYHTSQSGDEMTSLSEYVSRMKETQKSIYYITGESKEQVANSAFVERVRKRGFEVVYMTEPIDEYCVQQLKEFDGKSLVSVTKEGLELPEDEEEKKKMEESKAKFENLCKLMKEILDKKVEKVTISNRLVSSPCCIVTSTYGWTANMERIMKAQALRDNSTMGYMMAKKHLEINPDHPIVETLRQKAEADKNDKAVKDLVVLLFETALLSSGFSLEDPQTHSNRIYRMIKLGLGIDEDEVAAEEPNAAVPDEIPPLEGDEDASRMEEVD

For `CC1(C)CC(=O)c2c(C(F)(F)F)nn(-c3ccc(C(N)=O)c(N[C@H]4CC[C@H](OC(=O)CN)CC4)c3)c2C1` [SNX-5422], in the data set on PD-L1 and PD-L2, the “transcription and cell-surface expression of PD-L1 and PD-L2” value is “significant decrease in the transcription and cancer cell-surface expression of immune checkpoint ligands PD-L1 and PD-L2”.
With `Cl.O=c1c2cccn2c2ccccc2n1CCCN1CCC(c2ccc(Cl)cc2)CC1` [JMS-17-2, 5-[3-[4-(4-Chlorophenyl)-1-piperidinyl]propyl]pyrrolo[1,2-a]quinoxalin-4(5H)-one hydrochloride], the “effect on EnnA antitumor efficacy” value in the data set with E0771 tumors is given as “significantly reduced the efficacy of EnnA”. For the same molecule, the “lung breast cancer metastasis” value in [1] was “reduce lung breast cancer metastasis”.
As to `C=CCNC1=C2C[C@@H](C)C[C@H](OC)[C@H](O)[C@@H](C)/C=C(\C)[C@H](OC(N)=O)[C@@H](OC)/C=C\C=C(/C)C(=O)NC(=CC1=O)C2=O` [17-AAG, 17-N-allylamino-demethoxygeldanamycin], the “effect on Hsp90β binding to HOP” value in the data set with Hsp90β/HOP was “unlike 17-AAG, EnnA does not affect HOP binding to purified Hsp90β”. In addition, the tumor necrosis entry in the data set with 4T1 tumors (4T1, H&E, EnnA 10 mg/kg, 17-AAG 25 mg/kg) is recorded as “more necrotic than controls”. For the same molecule, the “immune-like cell infiltration of necrotic areas” value in the data set on 4T1 tumors (4T1 tumors) is given as “not as infiltrated as in the case of EnnA-treated animals”. Also, the “IL10 mRNA” value in data set [2] (E0771, RNA-seq and RTqPCR) is on record as “decreased mRNA expression of anti-inflammatory cytokines such as IL10”. The “pro-inflammatory cytokines IL12b, TNFα, IL1β mRNA” value in [2] (RTqPCR) is listed as “limited impact on these inflammatory cytokines”. Further, the “number of genes in common between EnnA and 17-AAG” value with E0771 transcriptome was found to be 34 genes. Further, in data set [3], the “CD8+ T cell infiltration” value is on record as “much less so in the 17-AAG-treated group”. Moreover, in data set [4], the “discrimination between cancer and non-transformed cells” value was “does not discriminate between cancer and non-transformed immortalized cells in cell culture”. Also, the “effect on Hsp90β binding to p23” value with Hsp90β/p23 is “as with 17-AAG, EnnA disrupts Hsp90β binding to p23”. In [5] (0.5 μM 17-AAG), the “heat shock response (mRNA and protein of Hsp70, Hsp40, Hsp27)” value is “upregulation of mRNA and protein levels of Hsp70, Hsp40, and Hsp27”. The “Hsp90 client protein level” value in [5] (EnnA at EC50, 0.5 μM 17-AAG) is “induced Hsp90 client protein degradation”. Moreover, in the data set on MDA-MB-231 cells, the “surface exposure of Hsp90, calreticulin, HMGB1 vs 17-AAG” value was “not induced by 17-AAG”. Also, the “accumulation of Hsp70-rich intermediate chaperoning complexes” value in [6] (SDS-PAGE/Coomassie, 1 μM 17-AAG, 10 μM EnnA) is given as “accumulation of the intermediate chaperoning complexes rich with Hsp70 as observed with 17-AAG”.
Turning to `CCNC(=O)c1noc(-c2cc(C(C)C)c(O)cc2O)c1-c1ccc(CN2CCOCC2)cc1` [Luminespib], in the data set on PD-L1 and PD-L2, the “transcription and cell-surface expression of PD-L1 and PD-L2” value is “significant decrease in the transcription and cancer cell-surface expression of immune checkpoint ligands PD-L1 and PD-L2”.
Consider `COC1=C2C[C@@H](C)C[C@H](OC)[C@H](O)[C@@H](C)/C=C(\C)[C@H](OC(N)=O)[C@@H](OC)/C=C\C=C(/C)C(=O)NC(=CC1=O)C2=O` [geldanamycin], for which the “transcription and cell-surface expression of PD-L1 and PD-L2” value in the data set with PD-L1 and PD-L2 is “significant decrease in the transcription and cancer cell-surface expression of immune checkpoint ligands PD-L1 and PD-L2”.
In the case of `CC(C)c1cc(-c2n[nH]c(=O)n2-c2ccc3c(ccn3C)c2)c(O)cc1O` [ganetespib], in data set [7] (autologous T cells in vitro), the “T-cell-mediated killing of melanoma cells” value was “enhances T-cell-mediated killing of patient-derived human melanoma cells”. In addition, the “effect on anti-CTLA4 and anti-PD-1 therapy” value in [7] (in vivo) was “potentiates responses to anti-CTLA4 and anti-PD-1 therapy in vivo”. Also, the “transcription and cell-surface expression of PD-L1 and PD-L2” value in the data set on PD-L1 and PD-L2 is “significant decrease in the transcription and cancer cell-surface expression of immune checkpoint ligands PD-L1 and PD-L2”.
For the molecule Enniatin B [AD96], in the data set on Hsp90β [8], the “CETSA stabilization of Hsp90” value is given as “did not stabilize Hsp90”. In addition, the “inhibition of PR refolding” value in [6] (RRL, Figures S1A–S1C, 10 µM drug in screen) is “did not inhibit the PR refolding”.
Consider `CC(C)C[C@H](NC(=O)[C@H](Cc1ccccc1)NC(=O)c1cnccn1)B(O)O` [bortezomib], for which the “Hsp90 exposure at cell surface” value in the data set with cancer cells [9] is given as “expose Hsp90 at the cell surface”.
On to `CC(C)NCCCn1c(Sc2cc3c(cc2I)OCO3)nc2c(N)ncnc21` [PU-H71], for which the “transcription and cell-surface expression of PD-L1 and PD-L2” value in the data set on PD-L1 and PD-L2 was “significant decrease in the transcription and cancer cell-surface expression of immune checkpoint ligands PD-L1 and PD-L2”.
Turning to `CC(C)=CCC[C@]1(C)C=Cc2c(O)c3c(c(CC=C(C)C)c2O1)O[C@]12C(=C[C@@H]4C[C@H]1C(C)(C)O[C@@]2(C/C=C(/C)C(=O)O)C4=O)C3=O` [GBA], the “binding to Hsp90β middle domain” value with Hsp90β [10] is “binds selectively to the middle domain of Hsp90β”. The “mode of cancer cell death” value with cancer cells [11] is listed as “GBA-induced cancer cell paraptosis”.

B1: Human p23, purified (natural protein, UniProt Q15185 1-160, looked up)
chain: MQPASAKWYDRRDYVFIEFCVEDSKDVNVNFEKSKLTFSCLGGSDNFKHLNEIDLFHCIDPNDSKHKRTDRSILCCLRKGESGQSWPRLTKERAKLNWLSVDFNNWKDWEDDSDEDMSNFDRFSEMMNNMGGDEDVDLPEVDGADDDSQDSDDEKMPDLE
As to B1, the binding result with Human Hsp90β, purified is recorded as “binds”.
